7 compounds from ChEMBL document CHEMBL1139549, “Two prodrugs of potent and selective GluR5 kainate receptor antagonists actives in three animal models of pain” (J Med Chem, 2005) can be followed below.

The target of experiment [1] is Glutamate receptor ionotropic, kainate 2 (Homo sapiens, UniProt Q13002). Put plainly: Inhibition of [3H]KA binding to iontropic glutamate receptor 6.
Experiment [2] is described as follows: Inhibition of [3H]KA binding to human iontropic glutamate receptors 5 and KA-2.
Experiment [3] is described as follows: Inhibition of [3H]KA binding to human iontropic glutamate receptors 6 and KA-2.
Experiment [4] is described as follows: Inhibition of [3H]KA binding to human iontropic glutamate receptors 5 and 6.
Experiment [5] deals with Glutamate receptor ionotropic, kainate 1 (Homo sapiens, UniProt P39086).
Description: Inhibition of [3H]-KA binding to iontropic glutamate receptor 5
For another experiment, the target named is Glutamate receptor 2 (Homo sapiens, UniProt P42262). Briefly: biochemical.
Sequence of Glutamate receptor 2 (P42262 whole entry): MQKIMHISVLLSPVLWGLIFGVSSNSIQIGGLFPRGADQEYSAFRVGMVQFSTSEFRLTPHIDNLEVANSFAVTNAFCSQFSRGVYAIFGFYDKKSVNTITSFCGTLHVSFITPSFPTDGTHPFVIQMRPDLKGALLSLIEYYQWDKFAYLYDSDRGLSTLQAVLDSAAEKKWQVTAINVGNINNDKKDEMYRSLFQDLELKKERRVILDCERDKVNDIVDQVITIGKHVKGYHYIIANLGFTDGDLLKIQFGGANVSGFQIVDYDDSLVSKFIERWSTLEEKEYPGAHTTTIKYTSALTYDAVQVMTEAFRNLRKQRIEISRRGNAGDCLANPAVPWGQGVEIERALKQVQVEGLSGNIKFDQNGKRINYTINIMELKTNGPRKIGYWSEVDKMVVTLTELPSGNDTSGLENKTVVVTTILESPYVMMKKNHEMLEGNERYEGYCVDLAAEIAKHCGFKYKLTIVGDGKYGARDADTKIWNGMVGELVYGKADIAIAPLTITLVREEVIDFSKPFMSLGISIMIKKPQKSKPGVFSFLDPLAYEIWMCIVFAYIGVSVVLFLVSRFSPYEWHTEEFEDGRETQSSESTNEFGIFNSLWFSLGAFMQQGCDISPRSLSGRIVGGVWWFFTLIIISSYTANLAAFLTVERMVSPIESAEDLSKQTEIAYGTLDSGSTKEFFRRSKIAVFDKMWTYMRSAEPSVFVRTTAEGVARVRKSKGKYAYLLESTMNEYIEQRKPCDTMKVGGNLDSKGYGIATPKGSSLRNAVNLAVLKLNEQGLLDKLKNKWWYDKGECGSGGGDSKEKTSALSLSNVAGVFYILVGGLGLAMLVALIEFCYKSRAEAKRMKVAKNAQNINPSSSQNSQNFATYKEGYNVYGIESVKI

Sequence of Glutamate receptor ionotropic, kainate 1 (P39086 whole entry): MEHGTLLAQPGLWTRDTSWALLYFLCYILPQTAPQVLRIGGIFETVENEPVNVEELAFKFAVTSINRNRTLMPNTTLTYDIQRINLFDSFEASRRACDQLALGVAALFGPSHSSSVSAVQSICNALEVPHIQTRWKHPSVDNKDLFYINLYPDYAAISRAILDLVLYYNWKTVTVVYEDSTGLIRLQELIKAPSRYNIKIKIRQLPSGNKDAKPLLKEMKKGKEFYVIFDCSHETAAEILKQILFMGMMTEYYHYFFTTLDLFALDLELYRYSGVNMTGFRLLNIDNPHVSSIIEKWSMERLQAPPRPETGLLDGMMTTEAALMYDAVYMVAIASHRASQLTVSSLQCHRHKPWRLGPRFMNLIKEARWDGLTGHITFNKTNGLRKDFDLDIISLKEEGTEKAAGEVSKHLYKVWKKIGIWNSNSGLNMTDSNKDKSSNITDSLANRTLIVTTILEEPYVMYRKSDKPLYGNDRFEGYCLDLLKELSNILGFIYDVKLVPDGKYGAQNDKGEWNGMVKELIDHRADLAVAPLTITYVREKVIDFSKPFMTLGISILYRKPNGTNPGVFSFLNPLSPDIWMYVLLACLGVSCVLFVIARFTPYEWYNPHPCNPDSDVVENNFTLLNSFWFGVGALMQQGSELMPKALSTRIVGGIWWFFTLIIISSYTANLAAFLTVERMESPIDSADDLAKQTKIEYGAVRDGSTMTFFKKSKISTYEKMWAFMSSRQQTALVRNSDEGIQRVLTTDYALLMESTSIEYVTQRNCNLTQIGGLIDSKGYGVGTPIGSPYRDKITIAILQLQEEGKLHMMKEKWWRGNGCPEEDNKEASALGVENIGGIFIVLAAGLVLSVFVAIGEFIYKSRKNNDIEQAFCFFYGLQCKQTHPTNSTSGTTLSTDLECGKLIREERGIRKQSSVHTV
Sequence of Glutamate receptor ionotropic, kainate 2 (Q13002 whole entry): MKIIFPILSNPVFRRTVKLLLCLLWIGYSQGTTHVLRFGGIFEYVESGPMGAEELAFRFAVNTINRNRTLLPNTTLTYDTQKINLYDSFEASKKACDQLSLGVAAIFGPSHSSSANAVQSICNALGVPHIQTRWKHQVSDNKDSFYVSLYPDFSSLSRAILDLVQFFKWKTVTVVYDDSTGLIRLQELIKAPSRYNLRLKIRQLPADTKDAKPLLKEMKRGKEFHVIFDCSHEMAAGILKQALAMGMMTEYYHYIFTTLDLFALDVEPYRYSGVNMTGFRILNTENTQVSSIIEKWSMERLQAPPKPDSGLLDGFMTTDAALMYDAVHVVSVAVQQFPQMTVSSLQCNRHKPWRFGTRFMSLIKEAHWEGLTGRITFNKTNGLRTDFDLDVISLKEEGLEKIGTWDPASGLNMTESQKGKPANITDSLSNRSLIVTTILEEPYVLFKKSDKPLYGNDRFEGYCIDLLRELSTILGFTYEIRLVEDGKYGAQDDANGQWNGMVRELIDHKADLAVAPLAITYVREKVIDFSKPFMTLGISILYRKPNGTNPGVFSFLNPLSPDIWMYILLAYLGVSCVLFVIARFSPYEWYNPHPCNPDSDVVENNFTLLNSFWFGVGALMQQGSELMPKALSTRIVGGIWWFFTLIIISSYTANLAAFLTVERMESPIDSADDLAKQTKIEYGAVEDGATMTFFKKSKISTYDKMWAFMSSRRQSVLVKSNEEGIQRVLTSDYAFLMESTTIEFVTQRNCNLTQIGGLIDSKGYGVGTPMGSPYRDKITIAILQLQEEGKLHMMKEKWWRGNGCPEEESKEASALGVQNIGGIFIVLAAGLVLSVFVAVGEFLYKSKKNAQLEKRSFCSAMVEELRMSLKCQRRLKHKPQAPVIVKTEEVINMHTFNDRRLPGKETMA
Description for Glutamate receptor 2: Inhibition of [3H]-AMPA binding to human GluR2 receptors expressed in HEK 293 cells

As to `O=C(O)[C@@H]1C[C@H]2C[C@@H](CCc3nn[nH]n3)CC[C@H]2CN1` [TEZAMPANEL ANHYDROUS], the Ki (in general, a measure of affinity in units of concentration, obtained from inhibition or displacement) in experiment [1] is greater than 100 µM; in experiment [2] it was 16.2 µM; in experiment [3], greater than 100 µM; in experiment [4], 2.1 µM; in experiment [5] it was 4.16 µM.

Turning to `O=C(O)c1ccc(C[C@H]2CC[C@H]3CN[C@H](C(=O)O)C[C@H]3C2)cc1`, the Ki was greater than 100 µM in experiment [1]; greater than 100 µM in experiment [2]; greater than 100 µM in experiment [3]; 10.2 µM in experiment [4]; greater than 100 µM at Glutamate receptor 2.

Regarding `O=C(O)[C@@H]1C[C@H]2C[C@@H](Oc3ccccc3-c3nn[nH]n3)CC[C@H]2CN1`, the inhibitory constant (Ki) in experiment [1] was greater than 100 µM; in experiment [2], 7.89 µM; in experiment [3], greater than 100 µM; in experiment [4], 1 µM; in experiment [5] it was 1.69 µM; at Glutamate receptor 2, 8.26 µM.

As for `CC(C)COC(=O)[C@@H]1C[C@H]2C[C@@H](Oc3ccccc3-c3nn[nH]n3)CC[C@H]2CN1`, the Ki in experiment [1] is greater than 100 µM; in experiment [2], 60.9 µM; in experiment [3] it was greater than 100 µM; in experiment [4], 5.98 µM; in experiment [5] it was 7.37 µM; at Glutamate receptor 2, greater than 100 µM.

With `CCC(CC)COC(=O)[C@@H]1C[C@H]2C[C@@H](Nc3ccccc3-c3nn[nH]n3)CC[C@H]2CN1`, the inhibitory constant (Ki) is greater than 100 µM in experiment [1]; greater than 100 µM in experiment [2]; greater than 100 µM in experiment [3]; 13.7 µM in experiment [4]; 31.8 µM in experiment [5]; greater than 100 µM on Glutamate receptor 2.

Turning to `O=C(O)[C@@H]1C[C@H]2C[C@@H](Nc3ccccc3-c3nn[nH]n3)CC[C@H]2CN1`, the Ki was greater than 100 µM in experiment [1]; 9.86 µM in experiment [2]; greater than 100 µM in experiment [3]; 1.37 µM in experiment [4]; 1.55 µM in experiment [5]; 5.51 µM at Glutamate receptor 2.

As to `NS(=O)(=O)c1cccc2c1c([N+](=O)[O-])cc1nc(O)c(O)nc12` [NBQX], the figures for the inhibition constant (Ki) in experiment [2], in experiment [3] and in experiment [4] were 26.6 µM, 0.6 µM and 6.12 µM, respectively.
